According to patent publication US20220160703A1, “TUMOR-SELECTIVE COMBINATION THERAPY” (The Board of Regents of The University of Texas System, priority 2019, published 2022):

Experiments:
[1] = system: NQO1 negative cell lines Panc02 and B16; assay: Cell viability/survival of NQO1 negative murine tumor lines (SRB); assay type: cell-based; details: β-lap 0-8 μM, SRB 4 days later
Procedure: (FIG. 1A) NQO1 positive tumor cell lines MC38, TC-1 and Ag104Ld and NQO1 negative cell lines Panc02 and B16 grown in 48-well plates were treated with β-lap (0-8 μM) for a 3 hr followed by washing and replacing medium. Cell viability was determined by Sulforhodamine B (SRB) Assay 4 days later. […] (FIG. 1C) MC38 cells with CRISPR-based NQO1 Knockout (MC38 NQO1KO #5) planted in 96-well plates were exposed to β-lap for 3 hr and cell survival was assessed 48 hr later. […] (FIG. 1E) MC38 cells were exposed to a lethal dose of β-lap (4 μM) for indicated times, then stained with 7-AAD and Annexin V followed by flow cytometry analysis. […] (FIG. 1H) MC38 and B16 NQO1 #1 cells were exposed to β-lap for a 3 hr. Catalase (1000 U/ml) was added and cell survival was assessed 48 hr later. […] Tumor growth was monitored twice a week.
(FIG. 8A) NQO1 expression in multiple murine tumor lines was immunoblotted as indicated. […] Drugs were removed and survival assessed 5 days later. (FIG. 8C) Relative H2O2 levels were assessed in various cells treated with β-lap for 3 h at the indicated doses using CellRox-Glo. […] (FIG. 8D) TC-1 cells exposure to β-lap for 12 h, later PARP-1 and Caspase-3 levels were analyzed by western blotting assay. […]
(FIGS. 14A-C) NQO1 cells MC38 (A) and TC-1 (B) and NQO1^− cells B16 (C) were treated for 2 h with various doses of IB-DNQ±DIC (50 μM). Drugs were removed and survival assessed 6 days later. […]

A549 tumor = assay: A549 xenograft in NSG-SGM3 humanized mouse model; assay type: in vivo, mice; details: Hu-NSG-SGM3 versus NSG-SGM3, β-lap 0.2 mg i.t. four times
Procedure: FIGS. 2A-F. β-Lap's antitumor effect is CD8^+ T cell dependent. (FIG. 2A) MC38 cells were subcutaneously transplanted into C57BL/6 WT (n=5-6/group) and Rag1 KO mice (n=5/group), respectively. Tumor bearing mice were treated with β-lap (0.3 mg, i.t.) every other day for four times. Numbers of tumor free mice after treatment were shown. (FIG. 2B) MC38 tumor bearing C57BL/6 mice (n=5/group) were treated with β-lap (0.3 mg, i.t.) every other day for four times. For CD8^+ T cell depletion, 200 μg of anti-CD8 antibodies were intraperitoneally injected four times at three days interval during the treatment. […] (FIG. 2D) Naïve (n=5/group) and β-lap cured MC38 tumor free (n=7/group) C57BL/6 mice were rechallenged subcutaneously with 3×10^6 MC38 cells on the opposite site from the primary tumor 30 days after complete rejection, and tumor growth curve was monitored. […] Tumor growth was measured twice a week. Data are shown as mean±SEM from three independent experiments. **P<0.01, ***P<0.001, ****P<0.0001 determined by two-way ANOVA.
For NSG-SGM3 humanized mouse model, four-week-old NSG-SGM3 female mice were irradiated with 100 cGy (X-ray irradiation with X-RAD 320 irradiator) one day prior to human CD34+ cells transfer. […] Tumor volumes were measured at least twice weekly. […]

CC1(C)CCC2=C(O1)c1ccccc1C(=O)C2=O [β-lap, β-lapachone]
response to 3 h β-lap exposure (cell viability) [1]: resistant | tumor control in presence of human immune system (A549 tumor): much better tumor control
